Experimental data as given in ChEMBL document CHEMBL5634090, “Design of phenothiazine-based cationic amphiphilic derivatives incorporating arginine residues: Potential membrane-active broad-spectrum antimicrobials combating pathogenic bacteria in vitro and in vivo” (Eur J Med Chem, 2023).
≈ marks a conversion by molar mass, not a printed value. Where “and” joins values, the source holds several entries; their conditions need not be identical. Identical values can stand only once. Calls of active or inactive are those of the source. The rule behind the calls is not given here.

Assays:
Klebsiella pneumoniae [1] = experiment: Inhibition of biofilm formation in Klebsiella pneumoniae ATCC 10031 at 6.25 ug/ml by crystal violet staining assay relative to control; assay type: functional
[2] = Selectivity index, ratio of CC50 for cytotoxicity against HEK293 cells to MIC for antibacterial activity against Klebsiella pneumoniae ATCC 10031; assay type: toxicity, cell-based; conditions: human, read-out: Selectivity Index
Escherichia coli [3] = experiment: Antibacterial activity against Escherichia coli ATCC 25922 in presence of 20 umol/L Fe3+ by broth microdilution method; assay type: functional
[4] = Cytotoxicity against mouse NCTC clone 929 cells assessed as cell survival rate at 3.125 ug/ml by CCK-8 assay relative to control; assay type: toxicity, cell-based; conditions: NCTC clone 929 (L929) cells, at 3.125 µg/mL, read-out: Activity
Klebsiella pneumoniae [5] = experiment: Antibacterial activity against Klebsiella pneumoniae ATCC 10031 in presence of 4.5 mmol/L K+ by broth microdilution method; assay type: functional
Klebsiella pneumoniae [6] = experiment: Antibacterial activity against Klebsiella pneumoniae ATCC 10031 in presence of 1 mmol/L Mg2+ by broth microdilution method; assay type: functional
Klebsiella pneumoniae [7] = experiment: Induction of resistance development in Klebsiella pneumoniae ATCC 10031 assessed as fold increase in MIC treated over 20 serial passages by microdilution assay; assay type: functional
Klebsiella pneumoniae [8] = experiment: Inhibition of biofilm formation in Klebsiella pneumoniae ATCC 10031 at 25 ug/ml by crystal violet staining assay relative to control; assay type: functional
Staphylococcus aureus [9] = experiment: Antibacterial activity against methicillin resistant Staphylococcus aureus N315 in presence of 2.5 mmol/L Ca2+ by broth microdilution method; assay type: functional
Staphylococcus aureus [10] = experiment: Antibacterial activity against methicillin resistant Staphylococcus aureus N315 in presence of 20 umol/L Fe3+ by broth microdilution method; assay type: functional
Klebsiella pneumoniae [11] = experiment: Antibiofilm activity against 24 hrs preformed biofilm in Klebsiella pneumoniae ATCC 10031 assessed as reduction in biofilm viability at 25 ug/ml relative to control; assay type: functional; conditions: dose 25 µg/ml
[12] = Cytotoxicity against HEK293 cells assessed as cell survival rate at 50 ug/ml by CCK-8 assay relative to control; assay type: toxicity, cell-based; conditions: human, at 50 µg/mL, read-out: Activity
Staphylococcus aureus [13] = experiment: Antibacterial activity against methicillin resistant Staphylococcus aureus N315 in presence of 140 mmol/L Na+ by broth microdilution method; assay type: functional
Klebsiella pneumoniae [14] = experiment: Antibiofilm activity against 24 hrs preformed biofilm in Klebsiella pneumoniae ATCC 10031 assessed as reduction in biofilm viability at 0.78 ug/ml relative to control; assay type: functional; conditions: dose 0.78 µg/ml
[15] = Selectivity index, ratio of CC50 for cytotoxicity against HEK293 cells to MIC for antibacterial activity against methicillin resistant Staphylococcus aureus N315; assay type: toxicity, cell-based; conditions: human, read-out: Selectivity Index
Staphylococcus aureus [16] = experiment: Antibacterial activity against methicillin resistant Staphylococcus aureus N315 in presence of 1 mmol/L Mg2+ by broth microdilution method; assay type: functional
Staphylococcus aureus [17] = experiment: Antibacterial activity against methicillin resistant Staphylococcus aureus NCTC 10442 in presence of 140 mmol/L Na+ by broth microdilution method; assay type: functional
Staphylococcus aureus [18] = experiment: Antibiofilm activity against 24 hrs preformed biofilm in Staphylococcus aureus ATCC 29213 assessed as reduction in biofilm viability at […] ug/ml relative to control; assay type: functional; conditions: dose […] microg/ml; 1.56 ug/mL
Escherichia coli [19] = experiment: Antibacterial activity against Escherichia coli ATCC 25922 in presence of 2.5 mmol/L Ca2+ by broth microdilution method; assay type: functional
Pseudomonas aeruginosa [20] = experiment: Antibacterial activity against Pseudomonas aeruginosa ATCC 9027 in presence of 4.50 mmol/L K+ by broth microdilution method; assay type: functional
Pseudomonas aeruginosa [21] = experiment: Antibacterial activity against Pseudomonas aeruginosa ATCC 9027 in presence of 1.00 mmol/L Mg2+ by broth microdilution method; assay type: functional
[22] = Cytotoxicity against HEK293 cells by CCK-8 assay; assay type: toxicity, cell-based; conditions: human
Staphylococcus aureus [23] = experiment: Antibiofilm activity against 24 hrs preformed biofilm in Staphylococcus aureus ATCC 29213 assessed as reduction in biofilm viability at 3.125 ug/ml relative to control; assay type: functional; conditions: dose 3.125 µg/ml
Klebsiella pneumoniae [24] = experiment: Antibacterial activity against Klebsiella pneumoniae ATCC 10031 in presence of 20 umol/L Fe3+ by broth microdilution method; assay type: functional
Staphylococcus aureus [25] = experiment: Antibacterial activity against Staphylococcus aureus ATCC 29213 assessed as loss in cell viability at 8 times MIC incubated for 4 hrs by LIVE/DEAD BacLight bacterial viability assay; assay type: functional, organism-based; conditions: Cell membrane
Klebsiella pneumoniae [26] = experiment: Inhibition of biofilm formation in Klebsiella pneumoniae ATCC 10031 at 3.125 ug/ml by crystal violet staining assay relative to control; assay type: functional
Staphylococcus aureus [27] = experiment: Antibacterial activity against methicillin resistant Staphylococcus aureus N315 in presence of 20 umol/L Fe2+ by broth microdilution method; assay type: functional
Klebsiella pneumoniae [28] = experiment: Inhibition of biofilm formation in Klebsiella pneumoniae ATCC 10031 at 12.5 ug/ml by crystal violet staining assay relative to control; assay type: functional
[29] = Selectivity index, ratio of CC50 for cytotoxicity against HEK293 cells to MIC for antibacterial activity against Staphylococcus aureus ATCC 29213; assay type: toxicity, cell-based; conditions: human, read-out: Selectivity Index
[30] = Selectivity index, ratio of CC50 for cytotoxicity against mouse NCTC clone 929 cells to MIC for antibacterial activity against Klebsiella pneumoniae ATCC 14581; assay type: toxicity, cell-based; conditions: read-out: Selectivity Index
Staphylococcus aureus [31] = experiment: Antibiofilm activity against 24 hrs preformed biofilm in Staphylococcus aureus ATCC 29213 assessed as reduction in biofilm viability at 0.78 ug/ml relative to control; assay type: functional; conditions: dose 0.78 µg/ml
Staphylococcus aureus [32] = experiment: Antibacterial activity against Staphylococcus aureus ATCC 29213 in presence of 2.5 mmol/L Ca2+ by broth microdilution method; assay type: functional
[33] = Selectivity index, ratio of CC50 for cytotoxicity against mouse NCTC clone 929 cells to MIC for antibacterial activity against methicillin resistant Staphylococcus aureus N315; assay type: toxicity, cell-based; conditions: read-out: Selectivity Index
Staphylococcus aureus [34] = experiment: Antibacterial activity against Staphylococcus aureus ATCC 29213 in presence of 1 mmol/L Mg2+ by broth microdilution method; assay type: functional
Staphylococcus aureus [35] = experiment: Induction of resistance development in Staphylococcus aureus ATCC 29213 assessed as fold increase in MIC treated over 20 serial passages by microdilution assay; assay type: functional
Klebsiella pneumoniae [36] = experiment: Antibacterial activity against Klebsiella pneumoniae ATCC 14581 by microbroth dilution assay; assay type: functional
Staphylococcus aureus [37] = experiment: Antibacterial activity against Staphylococcus aureus ATCC 29213 assessed as log reduction in bacterial load at 4 times MIC measured after 2 hrs by time kill assay; assay type: functional
[38] = Selectivity index, ratio of CC50 for cytotoxicity against HEK293 cells to MIC for antibacterial activity against methicillin resistant Staphylococcus aureus NCTC 10442; assay type: toxicity, cell-based; conditions: human, read-out: Selectivity Index
Klebsiella pneumoniae [39] = experiment: Antibacterial activity against Klebsiella pneumoniae ATCC 14581 in presence of 4.5 mmol/L K+ by broth microdilution method; assay type: functional
[40] = Cytotoxicity against mouse NCTC clone 929 cells by CCK-8 assay; assay type: toxicity, cell-based; conditions: NCTC clone 929 (L929) cells
Pseudomonas aeruginosa [41] = experiment: Antibacterial activity against Pseudomonas aeruginosa ATCC 9027 in presence of 19 umol/L Fe2+ by broth microdilution method; assay type: functional

Question: With CCCCCCCN1c2ccccc2Sc2ccc(OCC(=O)N[C@@H](CCCNC(=N)N)C(=O)N[C@@H](CCCNC(=N)N)C(N)=O)cc21 as the compound, how does the inhibition at 6.25 µg/mL (Klebsiella pneumoniae [1]) read?
Answer: 90%

Question: What about the selectivity ratio [2] of the same compound?
Answer: 8

Question: And the MIC (Escherichia coli [3])?
Answer: 3.12 µg/mL

Question: What about the viability at 3.125 ug/ml [4] of the same compound?
Answer: 97.9%

Question: And the MIC (Klebsiella pneumoniae [5])?
Answer: 3.12 µg/mL

Question: And the MIC (Klebsiella pneumoniae [6])?
Answer: 3.12 µg/mL

Question: What about the fold change (FC) (Klebsiella pneumoniae [7]) of the same compound?
Answer: < 4

Question: And the inhibition at 25 µg/mL (Klebsiella pneumoniae [8])?
Answer: 96.6%

Question: What about the MIC (Staphylococcus aureus [9]) of the same compound?
Answer: 3.12 µg/mL

Question: What about the MIC (Staphylococcus aureus [10]) of the same compound?
Answer: 1.56 µg/mL

Question: And the Activity (Klebsiella pneumoniae [11])?
Answer: 4.13%

Question: And the viability at 50 ug/ml [12]?
Answer: 56%

Question: What about the MIC (Staphylococcus aureus [13]) of the same compound?
Answer: 1.56 µg/mL

Question: What about the Activity (Klebsiella pneumoniae [14]) of the same compound?
Answer: 82.83%

Question: And the selectivity ratio [15]?
Answer: 8

Question: And the MIC (Staphylococcus aureus [16])?
Answer: 1.56 µg/mL

Question: And the MIC (Staphylococcus aureus [17])?
Answer: 1.56 µg/mL

Question: And the Activity (Staphylococcus aureus [18])?
Answer: 62.14%

Question: And the MIC (Escherichia coli [19])?
Answer: 3.12 µg/mL

Question: And the MIC (Pseudomonas aeruginosa [20])?
Answer: 6.25 µg/mL

Question: And the MIC (Pseudomonas aeruginosa [21])?
Answer: 6.25 µg/mL

Question: What about the CC50 [22] of the same compound?
Answer: > 50 µg/mL and 73.3 µM

Question: And the Activity (Staphylococcus aureus [23])?
Answer: 27.75%

Question: And the MIC (Klebsiella pneumoniae [24])?
Answer: 6.25 µg/mL

Question: What about the Activity (Staphylococcus aureus [25]) of the same compound?
Answer: Active

Question: And the inhibition at 3.125 µg/mL (Klebsiella pneumoniae [26])?
Answer: 73.8%

Question: And the MIC (Staphylococcus aureus [27])?
Answer: 1.56 µg/mL

Question: And the inhibition at 12.5 µg/mL (Klebsiella pneumoniae [28])?
Answer: 93.9%

Question: And the selectivity ratio [29]?
Answer: 8

Question: What about the selectivity ratio [30] of the same compound?
Answer: 8

Question: What about the Activity (Staphylococcus aureus [31]) of the same compound?
Answer: 91.66%

Question: What about the MIC (Staphylococcus aureus [32]) of the same compound?
Answer: 3.12 µg/mL

Question: What about the selectivity ratio [33] of the same compound?
Answer: 8

Question: What about the MIC (Staphylococcus aureus [34]) of the same compound?
Answer: 3.12 µg/mL

Question: What about the fold change (FC) (Staphylococcus aureus [35]) of the same compound?
Answer: < 4

Question: What about the MIC (Klebsiella pneumoniae [36]) of the same compound?
Answer: 3.12 µg/mL (≈ 4.58 µM)

Question: And the “log(activity)” value (Staphylococcus aureus [37])?
Answer: >3

Question: And the selectivity ratio [38]?
Answer: 8

Question: What about the MIC (Klebsiella pneumoniae [39]) of the same compound?
Answer: 3.12 µg/mL

Question: And the CC50 [40]?
Answer: > 50 µg/mL and 73.3 µM

Question: What about the MIC (Pseudomonas aeruginosa [41]) of the same compound?
Answer: 6.25 µg/mL
